{
  "source": "patent US5001156A",
  "about": "“Lipophilic quaternary ammonium salicylates, their use in cosmetics and in dermopharmacy” (priority 1986, dated 1991)",
  "data": [
    {"test_system": "Propionibacterium acnes strain ATCC 6919", "assay": "Minimal Inhibitory Concentration (MIC) by the dilution method;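 also: MIC reported in µg/ml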", "format": "cell-based", "conditions": "Propionibacterium acnes ATCC 6919, DMSO", "units": {"MIC": "µg/mL"}, "values": [
      {"molecule": "N-hexadecylpyridinium 5-octanoylsalicylate monohydrate [Compound 7]", "MIC": 2.4},
      {"molecule": "N-Hexadecyl-N,N,N-trimethylammonium salicylate [Compound 1, reference compound]", "MIC": 21},
      {"molecule": "N-dodecyl-N-methylmorpholinium 5-decanoylsalicylate [Compound 21]", "MIC": 9},
      {"molecule": "trimethyl-(β-hydroxyethyl)ammonium 5-decanoylsalicylate [Compound 17]", "MIC": 11},
      {"molecule": "N-hexadecylpyridinium 5-decanoylsalicylate sesquihydrate [Compound 8]", "MIC": 1.2},
      {"molecule": "CC(C)(C)CC(C)(C)c1ccc(OCCOCC[N+](C)(C)Cc2ccccc2)cc1.CCCCCCCCCCCC(=O)c1ccc([O-])c(C(=O)O)c1", "note": "[Compound 25, benzethonium 5-dodecanoylsalicylate]", "MIC": 2},
      {"molecule": "Hexadecyltrimethylammonium laurate [Compound 2, reference compound]", "MIC": 26},
      {"molecule": "N-(2-Hydroxyethyl)-N,N,N-trimethylammonium salicylate [Compound 19, reference compound]", "MIC": "> 100"},
      {"molecule": "N-hexadecylpyridinium 5-dodecanoylsalicylate hydrate [Compound 9]", "MIC": 1.2},
      {"molecule": "dimethylethyldodecylammonium 5-decanoylsalicylate [Compound 16]", "MIC": 6.2},
      {"molecule": "CCCCCCCCCCCC(=O)c1ccc(O)c(C(=O)[O-])c1.C[N+](C)(C)C", "note": "[Compound 15, N,N,N,N-tetramethylammonium 5-dodecanoylsalicylate]", "MIC": 2.5},
      {"molecule": "N-hexadecyl-N,N,N-trimethylammonium 5-decanoylsalicylate [Compound 5]", "MIC": 2.3},
      {"molecule": "CCCCCCCCCCCC(=O)c1ccc(O)c(C(=O)[O-])c1.CCCCCCCCCCCCCCCC[N+]12CCN(CC1)CC2", "note": "[Compound 23, 1'-azonia-4'-azabicyclo[2.2.2]octylhexadecane 5-dodecanoylsalicylate]", "MIC": 1.5},
      {"molecule": "N-hexadecyl-N-methylimidazolinium 5-dodecanoylsalicylate [Compound 20]", "MIC": 13.5},
      {"molecule": "trimethyl-(β-hydroxyethyl)ammonium 5-dodecanoylsalicylate [Compound 18]", "MIC": 4.8},
      {"molecule": "N-benzyl-N,N,N-trimethylammonium 5-decanoylsalicylate [Compound 13]", "MIC": 3.2},
      {"molecule": "N-hexadecyl-N,N,N-trimethylammonium 5-dodecanoylsalicylate [Compound 6]", "MIC": 3.2},
      {"molecule": "N-hexadecyl-N,N,N-trimethylammonium 5-octanoylsalicylate [Compound 4]", "MIC": 8},
      {"molecule": "N-benzyl-N,N-dimethyl-N-hexadecylammonium 5-decanoylsalicylate [Compound 11]", "MIC": 1.5},
      {"molecule": "N-hexadecyl-N,N-dimethyl-N-(β-hydroxyethyl)ammonium 5-decanoylsalicylate [Compound 14]", "MIC": 3.6},
      {"molecule": "N-benzyl-N,N-dimethyl-N-hexadecylammonium 5-octanoylsalicylate [Compound 10]", "MIC": 0.54},
      {"molecule": "Hexadecyltrimethylammonium stearate [Compound 3, reference compound]", "MIC": 25},
      {"molecule": "N-benzyl-N,N-dimethyl-N-hexadecylammonium 5-dodecanoylsalicylate [Compound 12]", "MIC": 1},
      {"molecule": "CC(C)(C)CC(C)(C)c1ccc(OCCOCC[N+](C)(C)Cc2ccccc2)cc1.CCCCCCCC(=O)c1ccc(O)c(C(=O)[O-])c1", "note": "[Compound 24, benzethonium 5-octanoylsalicylate]", "MIC": 1.2},
      {"molecule": "N-methyl-N-octylpiperidinium 5-dodecanoylsalicylate [Compound 22]", "MIC": 4.9}
    ]}
  ]
}
